Test results as given in PubChem BioAssay AID1645863 (Buhrlage Lab, Dana-Farber Cancer Institute and Novartis …, 2021).
The source made the active and inactive calls. No rule for the calls is given here.

Target: Ubiquitin carboxyl-terminal hydrolase 10 (Homo sapiens) (UniProt Q14694)
Assay: primary hit verification, biochemical, ubiquitin-specific protease 10 deubiquitylase inhibitors, concentration-effect titration (AID 1645863);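 also: potency values describe inhibition of USP10 cleavage of a fluorogenic ubiquitin substrate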
Settings: USP10 deubiquitinase enzymatic assay

Sequence of Ubiquitin carboxyl-terminal hydrolase 10 (Homo sapiens) (Q14694 whole entry, looked up): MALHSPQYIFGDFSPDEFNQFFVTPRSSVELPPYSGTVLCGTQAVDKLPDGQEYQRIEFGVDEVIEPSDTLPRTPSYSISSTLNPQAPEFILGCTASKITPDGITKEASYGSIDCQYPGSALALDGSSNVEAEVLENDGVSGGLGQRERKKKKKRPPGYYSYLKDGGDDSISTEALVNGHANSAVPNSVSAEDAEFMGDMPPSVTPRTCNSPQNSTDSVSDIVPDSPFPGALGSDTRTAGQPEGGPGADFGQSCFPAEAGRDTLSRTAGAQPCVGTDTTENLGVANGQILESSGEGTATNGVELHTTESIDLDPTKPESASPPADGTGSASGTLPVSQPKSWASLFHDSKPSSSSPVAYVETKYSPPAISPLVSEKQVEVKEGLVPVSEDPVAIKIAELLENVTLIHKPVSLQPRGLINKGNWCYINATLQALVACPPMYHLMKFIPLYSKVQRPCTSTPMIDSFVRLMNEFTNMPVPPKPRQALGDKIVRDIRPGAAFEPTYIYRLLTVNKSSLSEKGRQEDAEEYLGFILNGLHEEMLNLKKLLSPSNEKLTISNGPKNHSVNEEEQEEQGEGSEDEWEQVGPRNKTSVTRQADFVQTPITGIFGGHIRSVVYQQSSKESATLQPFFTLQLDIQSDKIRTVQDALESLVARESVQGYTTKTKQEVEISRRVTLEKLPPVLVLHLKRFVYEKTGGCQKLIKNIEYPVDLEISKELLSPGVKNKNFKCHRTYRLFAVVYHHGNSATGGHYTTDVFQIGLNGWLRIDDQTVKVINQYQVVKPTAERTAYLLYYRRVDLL

Structure (SMILES)	IC50
COC(=O)c1ccc(NC(=O)c2ccc(COc3cc(Cl)ccc3Cl)cc2)cc1	> 40 µM (inactive)
O=C(Cn1cnc(-c2noc(-c3cccc(F)c3)n2)c1)Nc1ccccc1	39.8 µM
COc1ccc(NC(=O)c2nnc(C(=O)NCCN3CCCCCC3)s2)cc1	> 40 µM (inactive)
O=c1[nH]c(C2CCN(S(=O)(=O)c3ccc(S(=O)(=O)NC4CCCC4)cc3)CC2)nc2c1nnn2Cc1cccc(Cl)c1	13.2 µM
CC1=C(Cn2c3cccc(=O)c-3nc3ccccc32)CCC(C)(C)C1	5.79 µM
COC(=O)c1ccccc1NC(=O)C1CCCN(c2nnc(-n3cccc3)s2)C1 (centres undefined)	> 40 µM (inactive)
COc1ccccc1-c1nc(-c2cn(-c3cccc(Cl)c3)nn2)no1	25.6 µM
Cc1ccc(-c2nn(C(C)(C)C)c3ncnc(NS(=O)(=O)c4ccc(Cl)cc4)c23)cc1	> 40 µM (inactive)
COC(=O)c1ccc2c(=O)n(CCCCCC(=O)NCCc3ccc(OC)c(OC)c3)c(=O)[nH]c2c1	> 40 µM (inactive)
COc1ccccc1CN1CCC(c2cc(=O)[nH]c(-c3cccnc3)n2)CC1	> 40 µM (inactive)
Cc1ccc(NC(=O)c2cc(-c3ccncc3)n[nH]2)cc1Cl	> 40 µM (inactive)
CCCCCCCCCCCCCCCc1cc(O)cc(O)c1C(=O)O	19.3 µM
COc1ccc(-c2nc3c(c(=O)c4ccccc4n3C)c(=O)n2Cc2ccco2)cc1	28.7 µM
CCCc1cc(=O)n2[nH]c(COc3ccccc3)c(-c3ccccc3)c2n1	14 µM
O=C(CC1C(=O)N(C2CCCC2)c2nc3ccccc3n21)Nc1ccccc1 (centres undefined)	> 40 µM (inactive)
CNc1ncc(C(=O)N2CCOC(C(=O)N3CCCCCC3)C2)cn1 (centres undefined)	> 40 µM (inactive)
O=C(COc1nc2ccccc2nc1N1CCOCC1)NC(c1ccccc1)c1ccccc1	> 40 µM (inactive)
COc1ccc(OC)c(-c2cn3ccn(-c4ccc(F)c(Cl)c4)c(=O)c3n2)c1	18.7 µM
O=C(c1ccccc1CN1CCOCC1)N1CCOCC2(C1)CN(c1ccc(F)cc1)C(=O)O2 (centres undefined)	> 40 µM (inactive)
O=C(COc1cccc(-c2noc(-c3ccc([N+](=O)[O-])cc3)n2)c1)Nc1ccccc1	> 40 µM (inactive)
O=C(Nc1ccc2snnc2c1)Nc1ccc(F)cc1F	> 40 µM (inactive)
COc1ccc(NC(=O)c2nnc(C(=O)NCc3ccccc3F)s2)cc1	> 40 µM (inactive)
CCc1[nH]c(=O)cc2cc(OC)c(OC)cc12	2.97 µM
Nc1c(-c2nc(-c3ccccc3Cl)no2)nnn1-c1ccc(Cl)cc1	11.5 µM

Structure (SMILES)	IC50
Cc1ccc(CNCc2cc3c(-c4ccc(F)cc4)nn(-c4ccccc4)c3[nH]c2=O)cc1	> 40 µM (inactive)
CN(C(=O)C1(c2ccccc2)CC1)c1nc2c(s1)CCc1occc1-2	> 40 µM (inactive)
Cc1cccc(NC(=O)Nc2ccc(C)n(CC(=O)Nc3ccc(C)c(C)c3)c2=O)c1	> 40 µM (inactive)
COc1c(O)cc(CC(=O)O)c(C(C)=O)c1O	15.3 µM
O=C(Nc1cc(F)c2nc(N3CCCC3)ccc2c1)c1ccco1	> 40 µM (inactive)
COCCCn1c(C(=O)NCc2ccccc2)cc2c(=O)n3ccccc3nc21	> 40 µM (inactive)
Nc1ncnc2c1ncn2[C@@H]1O[C@H](CO)C[C@@H]1O	24.9 µM
O=C(COc1ccc(C2CCCCC2)cc1)Nc1ccc(-c2nn3cnnc3s2)cc1	> 40 µM (inactive)
COc1cccc(NC(=O)c2cn(-c3cc(N4CCCC4)ncn3)cn2)c1	> 40 µM (inactive)
O=C(Nc1cccc(-c2nc3cnccc3o2)c1)c1ccc(Br)o1	> 40 µM (inactive)
CCCCN1Cc2sc(NC(=O)Nc3ccccc3C)nc2C1=O	15.6 µM
CCOC(=O)c1ccc(NC(=O)Cn2c(=O)n(-c3ccc(CC(=O)NCc4ccco4)cc3)c(=O)c3ccccc32)cc1	> 40 µM (inactive)
Cc1ccccc1NC(=O)N1CCC(CC(=O)N2CCCCC2)CC1	> 40 µM (inactive)
COc1cc(OC)c(NC(=O)Cn2c(=O)n(Cc3ccccc3Cl)c(=O)c3cc(OC)c(OC)cc32)cc1Cl	> 40 µM (inactive)
CCc1nc(SCC(=O)Nc2ccc(Cl)c(Cl)c2)c2oc3ccccc3c2n1	39.4 µM
CCCCCC(=O)C(CCCC)c1oc(=O)c(CCCC)c(O)c1CCCC (centres undefined)	31 µM
Cc1ccc(CNC(=O)c2cccc(N3C(=O)N4CCc5c([nH]c6ccccc56)[C@@]4(C)C3=O)c2)cc1	> 40 µM (inactive)
Cc1cccc(OCC2=NN3C(=N)/C(=C\c4cc(C)n(-c5cc(C)cc(C)c5)c4C)C(=O)N=C3S2)c1	> 40 µM (inactive)
CC(C)CC1NC(=O)C2CCCN2C1=O (centres undefined)	> 40 µM (inactive)
CC1OC2CC(O)C1(O)C1=C2C(O)=C(C(N)=O)C(=N)C1=O (centres undefined)	7.46 µM
Cn1cc(NC(=O)Nc2cccc(C(F)(F)F)c2)c2ccccc2c1=O	28.5 µM
Cc1cccc(NC(=O)Cn2c(=O)n(-c3cc(C)cc(C)c3)c(=O)c3sccc32)c1	> 40 µM (inactive)
COc1ccc(Cl)cc1NC(=O)c1nc(-c2cn(-c3ccccc3)nn2)no1	14.1 µM
O=S(=O)(Nc1cccc(O)c1)c1ccc2oc3ccc(S(=O)(=O)Nc4cccc(O)c4)cc3c2c1	14.4 µM

Structure (SMILES)	IC50
COc1ccc(-c2nc(-c3cn(-c4ccccc4)nn3)no2)c(OC)c1	> 40 µM (inactive)
Cc1cc(NC(=O)Cn2c(=O)n(Cc3ccco3)c(=O)c3ccc(C(=O)NCCc4ccccc4)cc32)n[nH]1	23 µM
O=C(Cn1c(COc2ccccc2)nc2ccccc21)Nc1ccc(N2CCOCC2)cc1	> 40 µM (inactive)
COc1ccc(CCNC(=O)Cn2c(=O)n(-c3ccc(CC(=O)NCCc4ccccc4)cc3)c(=O)c3ccccc32)cc1OC	> 40 µM (inactive)
Cc1ccc(CNC(=O)Cn2c(=O)n(CCCC(=O)NCc3ccc(F)cc3)c(=O)c3ccccc32)cc1	17.3 µM
Cc1cc(Nc2ccc(C(=O)NCc3ccco3)cc2)n2nc(-c3cccnc3)nc2n1	> 40 µM (inactive)
O=C(CSc1nnc2n(-c3ccccc3)c(=O)c3ccccc3n12)c1ccc(F)cc1	12.9 µM
Cc1ccc(C(=O)NC(C)c2ccccc2)cc1NC(=O)c1nsc2ccccc12 (centres undefined)	27.9 µM
CC(NC(=O)c1ccccc1)c1nc2ccccc2n1CC(=O)Nc1ccc(C#N)cc1 (centres undefined)	13.2 µM
O=c1[nH]c(C2CCN(S(=O)(=O)c3ccc(S(=O)(=O)NC4CCCCC4)cc3)CC2)nc2c1nnn2Cc1c(F)cccc1Cl	16.4 µM
Cc1ccc(Cn2c(C(=O)O)c(CNCc3ccco3)c3ccccc32)cc1	> 40 µM (inactive)
CCCCNC(=O)C1Sc2nnc(-c3ccccc3)n2NC1c1ccccc1 (centres undefined)	> 40 µM (inactive)
c1cncc(-c2cnc3sc(NCc4ccc5c(c4)OCO5)nn23)c1	> 40 µM (inactive)
Cc1ccc(Cn2cc(-c3noc(C(=O)Nc4cc(F)ccc4F)n3)nn2)cc1	26.8 µM
CCOc1ncccc1C(=O)Nc1ccnn1Cc1ccccc1	> 40 µM (inactive)
O=C(Nc1ccc2c(c1)OCCO2)C1CCC(Cn2cnc3ccccc3c2=O)CC1 (centres undefined)	> 40 µM (inactive)
O=C(Cn1c(=O)c2ccccc2n(CC(=O)Nc2cccc(F)c2)c1=O)NCCc1ccccc1	27.4 µM
Cn1c2ccccc2c(=O)c2c(=O)n(Cc3ccco3)c(-c3ccccc3F)nc21	8.37 µM
O=C(COC(=O)c1ccc(NS(=O)(=O)c2ccc(F)c(F)c2)cc1)Nc1ccc(OCc2ccccc2)cc1	20.9 µM
O=C(Nc1ccc(-c2cn3ccsc3n2)cc1)c1ccc(Cl)c([N+](=O)[O-])c1	19.7 µM
COC(=O)c1ccc2c(=O)n(-c3ccc(C)c(F)c3)c(N3CCC(C(N)=O)CC3)nc2c1	> 40 µM (inactive)
Cn1c(=O)n([C@@H](Cc2ccccc2)C(=O)N[C@@H](C(=O)O)c2ccc(O)cc2)c(=O)c2ccccc21	> 40 µM (inactive)
O=C(Cn1c(=O)n(CC2CCC(C(=O)NCCc3ccccc3)CC2)c(=O)c2ccccc21)NCc1ccco1 (centres undefined)	22.7 µM
N=C1/C(=C/c2cn(Cc3ccc(F)cc3)c3ccccc23)C(=O)N=C2SC(Cc3ccccc3)=NN12	17.4 µM

Structure (SMILES)	IC50
Cc1ccc(Cl)cc1NC(=O)Cn1c(=O)n(CCC(=O)NCc2ccco2)c(=O)c2ccccc21	13.1 µM
Cc1cccc(OCCn2c(CCNC(=O)C3CCCCC3)nc3ccccc32)c1	16.3 µM
N=C1/C(=C/c2cn(Cc3ccccc3)c3ccccc23)C(=O)N=C2SC(C(F)(F)F)=NN12	> 40 µM (inactive)
COc1cc2c(=O)n(CCC(=O)NC3CCCC3)c(=O)n(CC(=O)Nc3cccc(Cl)c3)c2cc1OC	36.1 µM
Cc1c(Cl)cccc1NC(=O)Cn1cc(C(=O)C2CC2)c2ccccc21	> 40 µM (inactive)
O=C(Nc1ccc2c(c1)CCC2)C1Cc2ccccc2CN1C(=O)c1ccccc1 (centres undefined)	> 40 µM (inactive)
Cc1ccc2nc(CNc3ccc(F)cc3C)cc(=O)n2c1	> 40 µM (inactive)
Cc1nnc(NC(=O)C2CCN(c3ccc(S(N)(=O)=O)cc3[N+](=O)[O-])CC2)o1	12.6 µM
Cn1nc(C(=O)N2CCC(c3ccccc3)C2)c2c1-c1ccsc1CC2 (centres undefined)	> 40 µM (inactive)
O=C(NC1CCCCC1)C(c1ccc(F)cc1)N(C(=O)C1COc2ccccc2O1)c1ccc2c(c1)OCO2 (centres undefined)	> 40 µM (inactive)
O=C(O)c1nccnc1C(=O)N1CCc2ccccc2C1	> 40 µM (inactive)
Cc1ccc(NC(=O)c2nnn(CC(=O)Nc3cccc(C)c3C)c2N)cc1C	18.1 µM
Cn1c(COc2cccc3cccnc23)nnc1SCC(=O)c1ccc(Cl)cc1Cl	> 40 µM (inactive)
O=C(Nc1ccc(Cn2cnc(-c3nc(-c4ccccc4)no3)c2)cc1)c1ccccc1F	> 40 µM (inactive)
CCOc1ccc2cc3c(nc2c1)OC(=O)N(Cc1ccc(OC)cc1)C3	5.74 µM
CCCc1nnc(NC(=O)c2cc(-c3ccccc3O)n[nH]2)s1	> 40 µM (inactive)
COc1cc2c(cc1OC)-c1cc(Nc3ccc(Br)cc3)nc(=O)n1CC2	13.7 µM
COc1cc(O)cc2c1C(=O)OC(C)CCCCCCC2 (centres undefined)	29.5 µM
O=C(c1cc(Cl)c(Cl)[nH]1)c1cc(Cl)cc(Cl)c1O	15.2 µM
COc1cc(NC(=O)Cn2nc(-c3ccc(F)cc3)ccc2=O)ccc1-n1cnnn1	> 40 µM (inactive)
CCc1ccc(NC(=O)c2cc(C(F)(F)F)n(C)n2)cc1	> 40 µM (inactive)
CCCn1c(=O)c(-c2ccc(C(=O)NCc3ccc(OC)cc3)cc2)nc2cccnc21	> 40 µM (inactive)
